The source of these data is PMC6332330, “Four New Cyclohexylideneacetonitrile Derivatives from the Hypocotyl of Mangrove (Bruguiera gymnorrhiza)” (Molecules, 2015).

≈ marks a conversion by molar mass, not a printed value.

Data set [1] in a line: Toxicity in standardized culture assay. Particulars: human.
Another data set relates to HBV replication. Briefly: Anti-HBV antiviral assay in standardized culture assay. Particulars: for EC50: Hepatitis B virus, read-out: EC50 (anti-HBV activity); for SI (CC50/EC50): selectivity index, ratio of CC50 to EC50; for activity against HBV replication (in words): human hepatoblastoma cell line, activity order 5 > 6 > 4 > 3 > 1 > 2 > 7.
Where [2] appears, read: HBV-producing human hepatoblastoma cell line.

`CO[C@H]1C=C/C(=C/C#N)[C@@H](O[C@@H]2O[C@H](CO)[C@@H](O)[C@H](O)[C@H]2O)C1` [Compound 1, Menisdaurin B] gave a CC50 in data set [1] of 178 ± 13.3 µg/mL (≈ 544 µM). In the data set on HBV replication, the EC50 came out at 23.8 ± 0.5 µg/mL (≈ 72.7 µM) and the “SI (CC50/EC50)” value is listed as 7.5.
Compound `CO[C@H]1CC/C(=C/C#N)[C@@H](O[C@@H]2O[C@H](CO)[C@@H](O)[C@H](O)[C@H]2O)C1` [Compound 2, Menisdaurin C] showed a CC50 in data set [1] of 165 ± 10.4 µg/mL (≈ 501 µM). In the data set with HBV replication, the EC50 worked out at 30.7 ± 1 µg/mL (≈ 93.2 µM) and the “SI (CC50/EC50)” value is given as 5.4.
In turn, `N#C/C=C1/CC[C@H](O)C[C@@H]1O[C@@H]1O[C@H](CO)[C@@H](O)[C@H](O)[C@H]1O` [Compound 3, Menisdaurin D] displayed a CC50 in data set [1] of 182 ± 6.8 µg/mL (≈ 577 µM). Also, in the data set with HBV replication, the concentration for a half-maximal effect (EC50) amounted to 19.4 ± 0.3 µg/mL (≈ 61.5 µM) and the “SI (CC50/EC50)” value worked out at 9.4.
`N#C/C=C1/CC[C@H](O)C[C@@H]1O` [Compound 4, Menisdaurin E] registered a CC50 in data set [1] (setting [2]) of 72.3 ± 4.1 µg/mL (≈ 472 µM). Besides, in the data set on HBV replication, the EC50 was 8.7 ± 1.1 µg/mL (≈ 56.8 µM) and the “SI (CC50/EC50)” value came out at 8.3.
In the case of `N#C/C=C1/C=C[C@H](O)C[C@@H]1O[C@@H]1O[C@H](CO)[C@@H](O)[C@H](O)[C@H]1O` [Compound 5, menisdaurin], it took 57.8 ± 3.9 µg/mL (≈ 184 µM) to reach half-maximal cytotoxicity in data set [1] (CC50). In addition, in the data set on HBV replication, the EC50 amounted to 5.1 ± 0.2 µg/mL (≈ 16.3 µM), the “activity against HBV replication (in words)” value is on record as “most effective activity” and the “SI (CC50/EC50)” value was 11.3.
The compound `N#C/C=C1\C=C[C@H](O)C[C@@H]1O` [Compound 6, coclauril] registered a CC50 in data set [1] of 83.9 ± 2.3 µg/mL (≈ 555 µM). In addition, in the data set with HBV replication, the EC50 is 7.6 ± 0.5 µg/mL (≈ 50.3 µM) and the “SI (CC50/EC50)” value came to 11.0.
For `O=C1C=C2C=C[C@@H](O)C[C@H]2O1` [Compound 7, menisdaurilide], in data set [1] (setting [2]), the CC50 amounted to 215 ± 14.7 µg/mL (≈ 1410 µM). Besides, in the data set on HBV replication, the EC50 was determined as 80.7 ± 5.8 µg/mL (≈ 530 µM), the “activity against HBV replication (in words)” value is “lesser degree of specific activity” and the “SI (CC50/EC50)” value was 2.7.
Regarding `Nc1ccn([C@@H]2CS[C@H](CO)O2)c(=O)n1` [Lamivudine, reference compound], the EC50 with HBV replication came to 0.1 ± 0.03 µg/mL (≈ 0.436 µM).

What is called CC50 is the concentration at which the toxic effect on the cells reaches its halfway point. A higher CC50 goes with lower toxicity to the cells. One may read the EC50 as the concentration needed to bring the measured effect to its halfway point.
